This is an account of results in patent publication US9597311B2, “Suppression and prevention of tumors” (priority 2005, dated 2017).

The nature of this assay: Additional benefits of taking betaine in people. In kind it is in vivo. The text has this:
While the main benefit of a person or pet taking vitamin C and betaine in combination is the prevention/suppression of tumors, as mentioned before, additional benefits can be obtained depending upon the levels taken. Betaine is known to improve cardiovascular health, and can benefit people with fatty deposits in the liver. […] After only a few weeks of taking the betaine, cholesterol levels are reduced and the ability to lose weight is improved.

The structures appear in SMILES notation.

Turning to `C[N+](C)(C)CC(=O)[O-]` [betaine, trimethylglycine], the “tendency to be light headed when getting up after prolonged squatting or kneeling” value (after a few doses at about one and a half to about three grams per day, especially older people) was “considerably lessened”. For the setting “after only a few weeks of taking the betaine”, the cholesterol levels result is given as “reduced”.
